{"source": "patent US20230201308A1", "about": "“TREATMENT OF CORONAVIRUS INFECTION WITH […]” (Eiger Biopharmaceuticals, Inc., priority 2020, published 2023)", "origin": "cited, not measured here", "system": "SARS-CoV-2", "conditions": "BLAZE trial; placebo group 15%; cited from earlier work"}
{"substance": "bamlanivimab", "values": [{"measurement": "hospitalization in the treatment group", "value": "placebo group to 4% in the treatment group. Despite the more potent antiviral effect"}]}
